Test results taken from patent US20100298302A1, “NOVEL PROTEIN KINASE MODULATORS” (priority 2009, published 2010).
pIC50: −log10 of the molar value. Blank lines part the entries; values can stand above or below the molecule they belong to.

Experiments:
recombinant PIM-1 = recombinant PIM-1 (Homo sapiens, UniProt P11309); test: PIM-1 kinase assay; type: biochemical; conditions: for inhibition at 0.5 µM: 500 nM compound, read-out: PIM1: % inh 500 nM; for pIC50: 15 μM ATP, read-out: PIM1: IC50 (15 μM ATP)
Chain of recombinant PIM-1 (P11309 whole entry): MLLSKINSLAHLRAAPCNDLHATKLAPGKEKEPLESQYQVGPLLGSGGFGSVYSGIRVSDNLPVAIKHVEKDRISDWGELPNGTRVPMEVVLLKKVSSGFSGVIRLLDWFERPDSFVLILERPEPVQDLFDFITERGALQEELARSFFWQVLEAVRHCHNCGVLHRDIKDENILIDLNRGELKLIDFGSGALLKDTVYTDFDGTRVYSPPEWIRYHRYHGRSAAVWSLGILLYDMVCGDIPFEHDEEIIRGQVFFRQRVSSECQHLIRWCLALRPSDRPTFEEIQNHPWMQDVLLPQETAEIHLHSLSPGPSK
Procedure: The following procedure was used to assay the PIM-1 kinase activity of compounds of the invention. Other methods for assaying PIM-1 and other PIM kinases, as well as methods to assay for activity against various kinases known in the art.
In a final reaction volume of 50 ul, recombinant PIM-1 (1 ng) was incubated with 12 mM MOPS pH 7.0, 0.4 mM EDTA, glycerol 1%, brij 35 0.002%, 2-mercaptoethanol 0.02%, BSA 0.2 mg/ml, 100 uM KKRNRTLTK, 10 mM MgAcetate, 15 uM ATP, [γ-^33P-ATP] (specific activity approx. 500 cpm/pmol), DMSO 4% and test inhibitor compound at the required concentration. The reaction was initiated by the addition of the Magnesium ATP mixture. After 40 min incubation at 23° C., the reactions were quenched by the addition of 100 ul 0.75% Phosphoric acid, and the labeled peptide collected by filtration through a phosphocellulose filter plate. The plate was washed 4 times with 0.075% phosphoric acid (100 ul per well) and then, after the addition of scintillation fluid (20 ul per well), the counts were measured by a scintillation counter.

MV-4-11 = test: Alamar Blue cell proliferation assay, MV-4-11; type: cell-based; conditions: Homo sapiens, MV4-11; Table 4
Procedure: (§1) A representative cell-proliferation assay protocol using Alamar Blue dye (stored at 4° C., use 20 ul per well) is described hereafter.
(§2) a. Split and trypsinize cells.
(§3) b. Count cells using hemocytometer.
(§4) c. Plate 4,000-5,000 cells per well in 100 μl of medium and seed into a 96-well plate according to the following plate layout. Add cell culture medium only to wells B10 to B12. Wells B1 to B9 have cells but no compound added.
(§5) d. Add 100 μl of 2× drug dilution to each well in a concentration shown in the plate layout above. At the same time, add 100 μl of media into the control wells (wells B10 to B12). Total volume is 200 μl/well.
(§6) e. Incubate four (4) days at 37° C., 5% CO2 in a humidified incubator.
(§7) f. Add 20 μl Alamar Blue reagent to each well.
(§8) g. Incubate for four (4) hours at 37° C., 5% CO2 in a humidified incubator.
(§9) h. Record fluorescence at an excitation wavelength of 544 nm and emission wavelength of 590 nm using a microplate reader.
(§10) In the assays, cells are cultured with a test compound for approximately four days, the dye is then added to the cells and fluorescence of […] dye is detected after approximately four hours. Different types of cells can be utilized in the assays (e.g., HCT-116 human colorectal carcinoma cells, PC-3 human prostatic cancer cells, MDA-MB231 human breast cancer cells, K-562 human chronic myelogenous leukemia (CML) cells, MiaPaca human pancreatic carcinoma cells, MV-4 human acute myeloid leukemia cells, and BxPC3 human pancreatic adenocarcinoma cells).

[1] = test system: K-562 human chronic myelogenous leukemia (CML) cells; test: Alamar Blue cell proliferation assay, K-562; type: cell-based; conditions: K562, Table 4
Procedure: as §1, §2, §3, §4, §5, §6, §7, §8, §9, §10

Compound: c1ccc(Nc2nc3cc(-c4nnc[nH]4)ccc3n3cccc23)cc1
- inhibition at 0.5 µM (recombinant PIM-1): -24.5%

Compound: N#Cc1ccc2c(c1)nc(Cl)c1cccn12
- inhibition at 0.5 µM (recombinant PIM-1): -35.4%

Compound: N#Cc1ccc2c(c1)nc(NCc1ccccc1)c1cccn12
- inhibition at 0.5 µM (recombinant PIM-1): -35%

Compound: O=C(O)c1ccc2c(c1)nc(Nc1ccccc1)c1cccn12
- pIC50 (MV-4-11): 6.32
- pIC50 [1]: < 5.00
- inhibition at 0.5 µM (recombinant PIM-1): 73.1%
- pIC50 (recombinant PIM-1): 6.89

Compound: CN(C)CCNc1nc2cc(C(=O)O)ccc2n2cccc12
- pIC50 (MV-4-11): 6.16
- pIC50 [1]: < 5.00
- inhibition at 0.5 µM (recombinant PIM-1): 76.5%
- pIC50 (recombinant PIM-1): 6.76

Compound: CCN1CCCC1CNc1nc2cc(-c3nnn[nH]3)ccc2n2cccc12 (centres unmarked)
- pIC50 (MV-4-11): < 5.00
- pIC50 [1]: < 5.00
- inhibition at 0.5 µM (recombinant PIM-1): 81.5%
- pIC50 (recombinant PIM-1): 7.01

Compound: O=C(O)c1ccc2c(c1)nc(NCCN1CCCCC1)c1cccn12
- pIC50 (MV-4-11): < 5.00
- pIC50 [1]: < 5.00
- inhibition at 0.5 µM (recombinant PIM-1): 98.8%
- pIC50 (recombinant PIM-1): 6.43

Compound: O=C(O)c1ccc2c(c1)nc(NCCN1CCCC1)c1cccn12
- pIC50 (MV-4-11): < 5.00
- pIC50 [1]: < 5.00
- inhibition at 0.5 µM (recombinant PIM-1): 72.5%
- pIC50 (recombinant PIM-1): 6.30

Compound: CCN1CCCC1CNc1nc2cc(C(=O)O)ccc2n2cccc12 (centres unmarked)
- pIC50 (MV-4-11): < 5.00
- pIC50 [1]: < 5.00
- inhibition at 0.5 µM (recombinant PIM-1): 89.7%
- pIC50 (recombinant PIM-1): 6.70

Compound: O=C(O)c1ccc2c(c1)nc(NCCN1CCOCC1)c1cccn12
- inhibition at 0.5 µM (recombinant PIM-1): 18.9%

Compound: CN1CCCC(Nc2nc3cc(C(=O)O)ccc3n3cccc23)C1 (centres unmarked)
- pIC50 (MV-4-11): < 5.00
- pIC50 [1]: < 5.00
- inhibition at 0.5 µM (recombinant PIM-1): 69.5%
- pIC50 (recombinant PIM-1): 6.48

Compound: O=C(O)c1ccc2c(c1)nc(NCCC(F)(F)F)c1cccn12
- inhibition at 0.5 µM (recombinant PIM-1): 46%

Compound: O=C(O)c1ccc2c(c1)nc(NCCO)c1cccn12
- inhibition at 0.5 µM (recombinant PIM-1): 35%

Compound: CCOC(=O)c1ccc2c(c1)[nH]c(=O)c1cccn12
- inhibition at 0.5 µM (recombinant PIM-1): 14%

Compound: O=C(O)c1ccc2c(c1)[nH]c(=O)c1cccn12
- inhibition at 0.5 µM (recombinant PIM-1): 25.6%

Compound: N#Cc1ccc2c(c1)[nH]c(=O)c1cccn12
- inhibition at 0.5 µM (recombinant PIM-1): -28.6%

Compound: O=c1[nH]c2cc(-c3nnn[nH]3)ccc2n2cccc12
- inhibition at 0.5 µM (recombinant PIM-1): 41.8%

Now from value to molecule:

- pIC50 (MV-4-11): < 5.00
- pIC50 [1]: < 5.00
- inhibition at 0.5 µM (recombinant PIM-1): 75.9%
- pIC50 (recombinant PIM-1): 6.79
Compound: c1ccc(Nc2nc3cc(-c4nnn[nH]4)ccc3n3cccc23)cc1

- inhibition at 0.5 µM (recombinant PIM-1): 14.4%
Compound: c1ccc(CNc2nc3cc(-c4nnn[nH]4)ccc3n3cccc23)cc1

- pIC50 (MV-4-11): < 5.00
- pIC50 [1]: < 5.00
- inhibition at 0.5 µM (recombinant PIM-1): 67.9%
- pIC50 (recombinant PIM-1): 6.56
Compound: OCCNc1nc2cc(-c3nnn[nH]3)ccc2n2cccc12

- pIC50 (MV-4-11): < 5.00
- pIC50 [1]: < 5.00
- inhibition at 0.5 µM (recombinant PIM-1): 73.2%
- pIC50 (recombinant PIM-1): 6.44
Compound: Fc1ccc(Nc2nc3cc(-c4nnn[nH]4)ccc3n3cccc23)cc1

- inhibition at 0.5 µM (recombinant PIM-1): 15%
Compound: COc1cccc(Nc2nc3cc(-c4nnn[nH]4)ccc3n3cccc23)c1

- inhibition at 0.5 µM (recombinant PIM-1): 19.4%
Compound: COc1ccc(Nc2nc3cc(-c4nnn[nH]4)ccc3n3cccc23)cc1Cl

- inhibition at 0.5 µM (recombinant PIM-1): 10.9%
Compound: COc1ccc(OC)c(Nc2nc3cc(-c4nnn[nH]4)ccc3n3cccc23)c1

- pIC50 (MV-4-11): < 5.00
- pIC50 [1]: < 5.00
- inhibition at 0.5 µM (recombinant PIM-1): 63.5%
- pIC50 (recombinant PIM-1): 6.31
Compound: CN(C)CCNc1nc2cc(-c3nnn[nH]3)ccc2n2cccc12

- inhibition at 0.5 µM (recombinant PIM-1): -76.2%
Compound: CCOC(=O)c1ccc2c(c1)nc(Nc1ccc(F)c(Cl)c1)c1cccn12
